The record followed here is ChEMBL document CHEMBL4406811, “Optimization and Mechanistic Characterization of Pyridopyrimidine Inhibitors of Bacterial Biotin Carboxylase” (J Med Chem, 2019).

As a reminder, the inhibition is the change of the read-out against control, counted positive when it falls. The term MIC denotes the lowest concentration that inhibits growth of the organism.

For data set [1], the target named is MAP4K4 (Homo sapiens, UniProt O95819). Kind of data set: Inhibition of recombinant human GST-tagged MAP4K4 catalytic domain (1 to 328 residues) expressed in baculovirus expression system at 25 uM using FRET-labeled Ser/Thr 07 peptide as substrate measured after 1 hr by Z'-lyte assay relative to control. The following applies: probe FRET-labeled Ser/Thr 07 peptide.

Data set [2] has as its target PDK1 (Homo sapiens, UniProt Q15118). Kind of data set: Inhibition of recombinant human full-length His-tagged PDK1 expressed in baculovirus expression system at 25 uM using FRET-labeled Ser/Thr 07 peptide as substrate measured after 1 hr by Z'-lyte assay relative to control. As to conditions: probe FRET-labeled Ser/Thr 07 peptide.
The target in data set [3] is EGFR (Homo sapiens, UniProt P00533). Kind of data set: Inhibition of recombinant human GST-tagged EGFR cytoplasmic domain (668 to 1210 residues) expressed in baculovirus expression system at 25 uM using FRET-labeled tyr 04 peptide as substrate measured after 1 hr by Z'-lyte assay relative to control. The following applies: probe FRET-labeled tyr 04 peptide.
In data set [4] the test system is Escherichia coli. Kind of data set: Antibacterial activity against Escherichia coli DM4100 harboring deltatolC mutant measured after 18 to 20 hrs in presence of permeabilizing agent PMBN by broth microdilution method. The data set is classed as functional.
Data set [5] addresses INSR (Homo sapiens, UniProt P06213). Put plainly: Inhibition of recombinant human GST-tagged INSR cytoplasmic domain (1011 to 1382 residues) expressed in baculovirus expression system at 25 uM using FRET-labeled Tyr 01 peptide as substrate measured after 1 hr by Z'-lyte assay relative to control. As to conditions: probe FRET-labeled Tyr 01 peptide.
For data set [6], the target named is PAK4 (Homo sapiens, UniProt O96013). Put plainly: Inhibition of recombinant human GST-tagged PAK4 catalytic domain (295 to 591 residues) expressed in baculovirus expression system at 25 uM using FRET-labeled Ser/Thr 20 peptide as substrate measured after 1 hr by Z'-lyte assay relative to control. The following applies: probe FRET-labeled Ser/Thr 20 peptide.
The target in data set [7] is T1, PRKCZ (Homo sapiens, UniProt Q05513).
T1 sequence (Q05513 whole entry): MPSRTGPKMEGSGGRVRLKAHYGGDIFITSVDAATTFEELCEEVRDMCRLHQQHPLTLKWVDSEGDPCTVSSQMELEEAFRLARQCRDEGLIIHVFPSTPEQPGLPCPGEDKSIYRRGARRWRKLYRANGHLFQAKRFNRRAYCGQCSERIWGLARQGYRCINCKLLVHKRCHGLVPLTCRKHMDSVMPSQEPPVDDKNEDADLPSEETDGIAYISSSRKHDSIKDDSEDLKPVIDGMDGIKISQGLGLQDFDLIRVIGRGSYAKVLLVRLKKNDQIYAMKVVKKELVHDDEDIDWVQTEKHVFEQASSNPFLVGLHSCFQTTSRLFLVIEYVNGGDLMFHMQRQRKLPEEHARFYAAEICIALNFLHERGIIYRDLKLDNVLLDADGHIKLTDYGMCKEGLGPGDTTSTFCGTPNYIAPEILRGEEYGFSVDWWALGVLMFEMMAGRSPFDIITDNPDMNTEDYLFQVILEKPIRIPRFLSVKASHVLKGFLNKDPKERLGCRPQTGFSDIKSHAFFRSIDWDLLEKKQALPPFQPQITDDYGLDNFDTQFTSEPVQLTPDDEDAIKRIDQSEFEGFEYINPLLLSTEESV
Put plainly: Inhibition of recombinant human full-length untagged PRKCZ expressed in baculovirus expression system at 25 uM using FRET-labeled Ser/Thr 07 peptide as substrate measured after 1 hr by Z'-lyte assay relative to control. As to conditions: probe FRET-labeled Ser/Thr 07 peptide.

Data set [8] deals with FGFR1 (Homo sapiens, UniProt P11362). Kind of data set: Inhibition of recombinant human His-tagged FGFR1 cytoplasmic domain (308 to 731 residues) expressed in baculovirus expression system at 25 uM using FRET-labeled tyr 04 peptide as substrate measured after 1 hr by Z'-lyte assay relative to control. The following applies: probe FRET-labeled tyr 04 peptide.
For data set [9], the target named is CSNK1D (Homo sapiens, UniProt P48730). Kind of data set: Inhibition of recombinant human full-length GST-tagged CSNK1D expressed in baculovirus expression system at 25 uM using FRET-labeled Ser/Thr 11 peptide as substrate measured after 1 hr by Z'-lyte assay relative to control. The following applies: probe FRET-labeled Ser/Thr 11 peptide.
The target of data set [10] is ABL1 (Homo sapiens, UniProt P00519). Put plainly: Inhibition of full-length recombinant human His-tagged ABL1 cytoplasmic domain expressed in baculovirus expression system at 25 uM using FRET-labeled tyr 02 peptide as substrate measured after 1 hr by Z'-lyte assay relative to control. The following applies: probe FRET-labeled tyr 02 peptide.
The target of data set [11] is GSK3B (Homo sapiens, UniProt P49841). Put plainly: Inhibition of recombinant human full-length His-tagged GSK3B expressed in baculovirus expression system at 25 uM using FRET-labeled Ser/Thr 09 peptide as substrate measured after 1 hr by Z'-lyte assay relative to control. As to conditions: probe FRET-labeled Ser/Thr 09 peptide.
The target of data set [12] is NTRK1 (Homo sapiens, UniProt P04629). Kind of data set: Inhibition of recombinant human His-tagged NTRK1 cytoplasmic domain (441 to 796 residues) expressed in baculovirus expression system at 25 uM using FRET-labeled tyr 07 peptide as substrate measured after 1 hr by Z'-lyte assay relative to control. The following applies: probe FRET-labeled tyr 07 peptide.
In data set [13] the target is MAPKAPK2 (Homo sapiens, UniProt P49137). Put plainly: Inhibition of recombinant human full-length His-tagged MAPKAPK2 expressed in Escherichia coli at 25 uM using FRET-labeled Ser/Thr 04 peptide as substrate measured after 1 hr by Z'-lyte assay relative to control. The following applies: probe FRET-labeled Ser/Thr 04 peptide.
For data set [14], the target named is T2, CHEK1 (Homo sapiens, UniProt O14757).
T2 sequence (O14757 whole entry): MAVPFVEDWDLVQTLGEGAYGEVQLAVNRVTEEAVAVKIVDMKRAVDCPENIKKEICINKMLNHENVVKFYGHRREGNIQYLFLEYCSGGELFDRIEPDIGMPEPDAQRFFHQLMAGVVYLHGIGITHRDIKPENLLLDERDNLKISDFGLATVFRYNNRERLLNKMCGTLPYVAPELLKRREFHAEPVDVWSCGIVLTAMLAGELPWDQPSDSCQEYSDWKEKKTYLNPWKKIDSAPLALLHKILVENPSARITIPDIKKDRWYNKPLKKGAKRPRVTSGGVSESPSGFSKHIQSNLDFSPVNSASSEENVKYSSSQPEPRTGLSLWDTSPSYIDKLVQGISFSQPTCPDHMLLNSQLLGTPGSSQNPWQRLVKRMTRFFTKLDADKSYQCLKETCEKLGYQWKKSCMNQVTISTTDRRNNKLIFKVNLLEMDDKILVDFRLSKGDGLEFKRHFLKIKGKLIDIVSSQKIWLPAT
Kind of data set: Inhibition of recombinant human full-length His-tagged CHEK1 expressed in baculovirus expression system at 25 uM using FRET-labeled Ser/Thr 19 peptide as substrate measured after 1 hr by Z'-lyte assay relative to control. The following applies: probe FRET-labeled Ser/Thr 19 peptide.

Chain of ABL1 (P00519 whole entry, the tested form may be a part): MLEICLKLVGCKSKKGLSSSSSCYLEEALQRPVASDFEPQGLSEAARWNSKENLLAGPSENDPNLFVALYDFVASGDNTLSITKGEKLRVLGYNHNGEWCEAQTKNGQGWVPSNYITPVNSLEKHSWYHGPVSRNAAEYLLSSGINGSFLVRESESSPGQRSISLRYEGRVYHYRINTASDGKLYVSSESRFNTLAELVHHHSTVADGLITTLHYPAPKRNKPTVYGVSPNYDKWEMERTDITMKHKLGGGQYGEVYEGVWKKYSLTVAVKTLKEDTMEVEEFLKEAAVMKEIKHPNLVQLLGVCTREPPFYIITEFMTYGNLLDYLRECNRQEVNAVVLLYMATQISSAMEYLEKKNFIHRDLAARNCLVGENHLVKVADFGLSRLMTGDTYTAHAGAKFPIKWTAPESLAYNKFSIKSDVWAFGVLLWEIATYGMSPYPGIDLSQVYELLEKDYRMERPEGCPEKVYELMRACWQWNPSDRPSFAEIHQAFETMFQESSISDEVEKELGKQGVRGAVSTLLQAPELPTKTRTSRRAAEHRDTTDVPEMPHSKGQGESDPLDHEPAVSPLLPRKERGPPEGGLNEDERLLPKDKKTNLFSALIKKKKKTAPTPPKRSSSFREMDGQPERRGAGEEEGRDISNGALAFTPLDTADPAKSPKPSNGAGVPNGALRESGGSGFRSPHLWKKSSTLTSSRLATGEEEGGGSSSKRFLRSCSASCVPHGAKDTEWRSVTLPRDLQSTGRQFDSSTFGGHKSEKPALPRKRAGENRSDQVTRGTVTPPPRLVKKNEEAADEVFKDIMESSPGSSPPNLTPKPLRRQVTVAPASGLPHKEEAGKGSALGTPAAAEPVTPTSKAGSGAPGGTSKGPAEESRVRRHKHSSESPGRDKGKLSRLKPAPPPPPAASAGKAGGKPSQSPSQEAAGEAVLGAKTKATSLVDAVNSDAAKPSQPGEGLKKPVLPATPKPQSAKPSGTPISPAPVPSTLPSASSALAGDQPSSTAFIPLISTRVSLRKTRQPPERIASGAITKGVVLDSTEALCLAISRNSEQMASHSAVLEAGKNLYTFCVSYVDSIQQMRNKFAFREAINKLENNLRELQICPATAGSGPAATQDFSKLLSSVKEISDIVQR
Chain of CSNK1D (P48730 whole entry, the tested form may be a part): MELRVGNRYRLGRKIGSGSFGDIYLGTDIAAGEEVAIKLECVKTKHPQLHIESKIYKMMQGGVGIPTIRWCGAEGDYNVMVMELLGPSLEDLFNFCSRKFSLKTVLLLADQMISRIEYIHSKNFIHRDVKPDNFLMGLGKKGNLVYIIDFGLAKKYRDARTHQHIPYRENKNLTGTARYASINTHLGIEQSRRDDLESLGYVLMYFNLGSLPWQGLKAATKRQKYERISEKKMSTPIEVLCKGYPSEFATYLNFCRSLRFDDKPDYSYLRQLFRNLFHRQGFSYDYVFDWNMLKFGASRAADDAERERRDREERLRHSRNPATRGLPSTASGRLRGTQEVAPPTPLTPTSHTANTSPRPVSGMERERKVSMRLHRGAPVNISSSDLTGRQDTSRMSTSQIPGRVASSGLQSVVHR
Chain of PAK4 (O96013 whole entry, the tested form may be a part): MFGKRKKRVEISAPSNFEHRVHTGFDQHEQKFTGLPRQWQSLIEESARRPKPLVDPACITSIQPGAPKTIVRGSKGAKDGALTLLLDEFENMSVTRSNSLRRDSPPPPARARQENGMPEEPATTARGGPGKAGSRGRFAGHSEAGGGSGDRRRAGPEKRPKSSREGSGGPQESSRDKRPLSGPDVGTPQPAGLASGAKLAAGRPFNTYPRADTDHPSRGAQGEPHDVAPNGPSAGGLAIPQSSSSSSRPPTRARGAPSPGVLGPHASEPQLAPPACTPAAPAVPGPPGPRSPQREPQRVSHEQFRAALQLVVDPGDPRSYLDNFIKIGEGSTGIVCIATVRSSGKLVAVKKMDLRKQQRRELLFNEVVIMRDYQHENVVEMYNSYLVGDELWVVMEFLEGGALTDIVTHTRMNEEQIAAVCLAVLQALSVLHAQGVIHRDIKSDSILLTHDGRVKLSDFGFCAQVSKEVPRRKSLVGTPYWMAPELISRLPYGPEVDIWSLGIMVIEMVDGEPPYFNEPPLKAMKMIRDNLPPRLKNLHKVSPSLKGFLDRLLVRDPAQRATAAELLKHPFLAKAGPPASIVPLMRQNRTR
Chain of MAP4K4 (O95819 whole entry, the tested form may be a part): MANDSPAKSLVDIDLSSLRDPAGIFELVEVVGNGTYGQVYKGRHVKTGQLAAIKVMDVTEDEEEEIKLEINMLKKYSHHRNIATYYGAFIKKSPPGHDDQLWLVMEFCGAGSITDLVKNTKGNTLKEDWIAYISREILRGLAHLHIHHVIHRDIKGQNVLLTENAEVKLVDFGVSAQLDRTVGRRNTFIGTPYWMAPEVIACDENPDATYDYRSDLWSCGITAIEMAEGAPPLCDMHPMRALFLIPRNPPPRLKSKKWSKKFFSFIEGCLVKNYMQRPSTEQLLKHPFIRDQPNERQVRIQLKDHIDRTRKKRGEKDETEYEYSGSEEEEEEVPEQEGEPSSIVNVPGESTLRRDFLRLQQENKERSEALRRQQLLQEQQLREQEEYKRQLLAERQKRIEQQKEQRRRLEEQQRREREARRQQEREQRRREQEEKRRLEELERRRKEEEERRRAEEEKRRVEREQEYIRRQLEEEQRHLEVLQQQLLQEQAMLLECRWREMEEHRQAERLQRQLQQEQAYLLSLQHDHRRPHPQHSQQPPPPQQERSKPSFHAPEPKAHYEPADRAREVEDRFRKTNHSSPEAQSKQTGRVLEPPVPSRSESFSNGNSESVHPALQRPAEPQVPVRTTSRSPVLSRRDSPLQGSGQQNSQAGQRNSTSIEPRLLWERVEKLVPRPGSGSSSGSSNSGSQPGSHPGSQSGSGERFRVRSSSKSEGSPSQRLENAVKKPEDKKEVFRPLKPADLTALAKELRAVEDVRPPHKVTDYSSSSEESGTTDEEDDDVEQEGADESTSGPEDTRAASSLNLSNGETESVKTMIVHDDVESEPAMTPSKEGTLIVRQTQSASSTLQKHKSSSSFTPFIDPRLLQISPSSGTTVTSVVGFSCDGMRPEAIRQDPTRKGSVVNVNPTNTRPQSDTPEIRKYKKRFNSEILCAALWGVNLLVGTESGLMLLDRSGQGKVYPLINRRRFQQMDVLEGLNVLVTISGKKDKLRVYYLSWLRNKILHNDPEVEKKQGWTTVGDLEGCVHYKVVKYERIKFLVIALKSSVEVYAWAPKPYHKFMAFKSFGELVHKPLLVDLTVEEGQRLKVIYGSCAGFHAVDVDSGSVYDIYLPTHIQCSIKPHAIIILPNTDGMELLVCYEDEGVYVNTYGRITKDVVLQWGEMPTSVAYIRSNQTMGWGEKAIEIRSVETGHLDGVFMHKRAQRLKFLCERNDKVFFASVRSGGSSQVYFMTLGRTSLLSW
Chain of EGFR (P00533 whole entry, the tested form may be a part): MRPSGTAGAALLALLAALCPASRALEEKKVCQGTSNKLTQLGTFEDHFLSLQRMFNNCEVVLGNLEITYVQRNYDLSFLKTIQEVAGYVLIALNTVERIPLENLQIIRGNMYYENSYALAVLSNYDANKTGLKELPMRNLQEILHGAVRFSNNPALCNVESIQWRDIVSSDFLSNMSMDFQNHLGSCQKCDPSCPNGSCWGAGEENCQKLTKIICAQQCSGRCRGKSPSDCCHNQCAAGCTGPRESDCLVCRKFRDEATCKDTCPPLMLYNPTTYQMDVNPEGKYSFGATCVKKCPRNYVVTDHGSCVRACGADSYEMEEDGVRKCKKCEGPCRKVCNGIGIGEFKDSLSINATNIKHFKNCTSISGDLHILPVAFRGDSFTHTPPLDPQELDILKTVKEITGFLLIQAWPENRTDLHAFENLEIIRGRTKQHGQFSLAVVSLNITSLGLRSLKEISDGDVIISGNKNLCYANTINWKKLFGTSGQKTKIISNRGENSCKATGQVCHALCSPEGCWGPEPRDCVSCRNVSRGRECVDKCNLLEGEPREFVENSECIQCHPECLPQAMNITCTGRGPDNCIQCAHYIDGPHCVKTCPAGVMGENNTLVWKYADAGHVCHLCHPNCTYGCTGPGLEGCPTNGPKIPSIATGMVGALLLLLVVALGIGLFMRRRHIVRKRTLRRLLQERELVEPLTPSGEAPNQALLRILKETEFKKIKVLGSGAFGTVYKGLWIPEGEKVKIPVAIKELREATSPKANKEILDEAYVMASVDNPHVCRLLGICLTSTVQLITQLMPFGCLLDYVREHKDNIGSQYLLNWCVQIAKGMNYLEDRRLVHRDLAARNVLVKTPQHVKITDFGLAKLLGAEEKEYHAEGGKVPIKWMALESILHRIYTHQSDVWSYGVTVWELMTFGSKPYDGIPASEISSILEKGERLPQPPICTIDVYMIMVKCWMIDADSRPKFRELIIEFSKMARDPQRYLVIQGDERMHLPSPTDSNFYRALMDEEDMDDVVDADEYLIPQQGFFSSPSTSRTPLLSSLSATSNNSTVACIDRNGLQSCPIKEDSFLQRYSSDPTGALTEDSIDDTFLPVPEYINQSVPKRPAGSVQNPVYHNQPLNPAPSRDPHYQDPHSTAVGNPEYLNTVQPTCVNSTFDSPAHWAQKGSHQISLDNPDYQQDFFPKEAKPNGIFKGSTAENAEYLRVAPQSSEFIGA
Chain of PDK1 (Q15118 whole entry, the tested form may be a part): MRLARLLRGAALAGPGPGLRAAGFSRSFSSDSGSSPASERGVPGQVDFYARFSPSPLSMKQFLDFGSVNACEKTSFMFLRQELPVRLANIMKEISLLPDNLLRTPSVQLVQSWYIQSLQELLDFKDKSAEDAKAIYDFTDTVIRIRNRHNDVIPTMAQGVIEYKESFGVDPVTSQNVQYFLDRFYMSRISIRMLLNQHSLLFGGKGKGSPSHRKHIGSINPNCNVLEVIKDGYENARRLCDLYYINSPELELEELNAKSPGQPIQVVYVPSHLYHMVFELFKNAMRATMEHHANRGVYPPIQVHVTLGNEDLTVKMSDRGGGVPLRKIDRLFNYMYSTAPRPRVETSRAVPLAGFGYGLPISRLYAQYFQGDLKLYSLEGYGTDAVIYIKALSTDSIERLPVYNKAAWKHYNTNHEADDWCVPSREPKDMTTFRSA

For `Nc1ncc2cc(-c3c(Br)cccc3Br)c(N)nc2n1`, the inhibition at 1 h, 25 µM in [1] turned out to be 52%; in data set [2] it was 3%; in data set [3], 58%; in data set [5], 6%; in data set [6], 20%; in data set [7], 0%. Further, the inhibition at 1 h, 25 µM in data set [8] came out at 78%; in [9], 16%; in data set [10] it was 97%; in data set [11] it was 6%; in data set [12], 47%; in data set [13], 10%. For the same compound, the inhibition at 1 h, 25 µM in data set [14] was -1%. In addition, the MIC in data set [4] came to 0.12 µg/mL.
`CC(C)COc1cccc(Cl)c1-c1cc2cnc(N)nc2nc1N1C[C@@H]2[C@@H](N)[C@@H]2C1`: the inhibition at 1 h, 25 µM in data set [1] was 24%; in [2], 0%; in [3], 6%; in data set [5], 3%; in data set [6], 23%; in data set [7] it was -8%. Besides, the inhibition at 1 h, 25 µM stood at 60% in data set [8]; 3% in data set [9]; 30% in data set [10]; 7% in data set [11]; 40% in data set [12]; 21% in data set [13]. Also, the inhibition at 1 h, 25 µM in data set [14] turned out to be 42%. Besides, the MIC in data set [4] was determined as 0.015 µg/mL.
Turning to `Nc1ncc2cc(-c3c(Cl)cccc3-c3cccnc3)c(N3C[C@@H]4[C@@H](N)[C@@H]4C3)nc2n1`, the inhibition at 1 h, 25 µM in data set [1] came to 21%; in data set [2], 0%; in data set [3], 65%; in data set [5] it was 3%; in [6], 25%; in data set [7] it was 5%. Besides, the inhibition at 1 h, 25 µM is 57% in data set [8]; 3% in data set [9]; 38% in data set [10]; 4% in data set [11]; 47% in data set [12]; 26% in [13]. The inhibition at 1 h, 25 µM in data set [14] was 28%. Also, in [4], the MIC was 0.008 µg/mL.
